In patent US9615577B2, “Herbicidally active cyclic dione compounds, or derivatives therefor, substituted by a phenyl which has an alkynyl-containing substituent” (Syngenta Limited, priority 2012, dated 2017):

Legend:
Assay type in all cases: in vivo
Setaria faberi (SETFA) [1] = assay: Test 1A glasshouse assay for herbicidal activity, post-emergence; conditions: 312 h, evaluated after 13 days, read-out: percentage phytotoxicity SETFA
Outline: (§1)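 Glasshouse spray test with visual phytotoxicity scoring (0–100%) after 13 days. Application timing: 1 day after sowing or after 8 days' cultivation, in 0.5% Tween 20 acetone/water.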

[2] = test system: Amaranthus retroflexus (AMARE); assay: as above; conditions: 312 h, evaluated after 13 days, read-out: percentage phytotoxicity AMARE
Outline: as §1

[3] = test system: Echinochloa crus-galli (ECHCG); assay: as above; conditions: 312 h, evaluated after 13 days, read-out: percentage phytotoxicity ECHCG
Outline: as §1

[4] = test system: Alopecurus myosuroides (ALOMY); assay: as above; conditions: 312 h, evaluated after 13 days, read-out: percentage phytotoxicity ALOMY
Outline: as §1

[5] = test system: Echinochloa crus-galli (ECHCG); assay: Test 1B glasshouse assay for herbicidal activity, post-emergence; conditions: Echinochloa crus-galli
Outline: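 Plants grown about 12 days (10–13) in glasshouse (24/18 °C day/night, 16 h light, 65% humidity) then sprayed with IF50 formulation diluted in 0.2% v/v X-77 adjuvant at set application rates. Percent phytotoxicity scored visually 15 days after application (0 = no damage, 100 = total damage).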

[6] = test system: Brachiaria plantaginea (BRAPL); assay: Test 1B glasshouse assay for herbicidal activity, pre-emergence; conditions: Urochloa plantaginea, 480 h, 125 g/ha, 20 DAA, read-out: percentage phytotoxicity BRAPL
Outline: (§2)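 Pots of soil were sown and held one day for pre-emergence or about 12 days for post-emergence treatment, then sprayed with an aqueous solution containing 0.2% v/v X-77 adjuvant, prepared from a 50 g/liter IF50 formulation, at rate-dependent concentration. Visual damage scoring followed at 20 or 15 DAA respectively.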

[7] = test system: Triticum aestivum (TRZAW, winter wheat); assay: as above; conditions: 480 h, 125 g/ha, 20 DAA, read-out: percentage phytotoxicity TRZAW
Experimental: (§3) Seeds of a variety of monocotyledonous and dicotyledonous test plants are sown in standard soil in pots. The plants are cultivated for one day (for pre-emergence) or for about 12 days (range=10-13 days) (for post-emergence) under controlled conditions in a glasshouse (warm climate species at 24/18° C., cool climate species at 20/16° C., both at day/night; 16 hours light; 65% humidity).
(§4) An “instant formulation”, known as the “IF50”, containing 50 g/liter (i.e. 5% w/v) of the “technical” (i.e. unformulated) active ingredient is prepared by dissolving the active ingredient in a mixture of organic solvents and emulsifier, details of which are provided in the Table below. This IF50 is then mixed with a small, variable amount of acetone to aid dissolution, before addition of a 0.2% v/v aqueous solution of the adjuvant X-77 (which is a mixture of alkyl aryl polyoxyethylene glycols and free fatty acids in isopropanol, CAS Registry number 11097-66-8), as the aqueous diluent, to form an aqueous spray solution which contains a predetermined concentration of the active ingredient (which varies depending on the application rate of the active ingredient to the plants) and 0.2% v/v of the adjuvant X-77. This aqueous spray solution is then sprayed onto the plants, after one day's cultivation (for pre-emergence) or after about 12 days' cultivation (for post-emergence).
(§5) The test plants are then grown on, in a glasshouse (greenhouse) under controlled conditions (at either 24/18° C. or 20/16° C. (day/night) as mentioned above; 16 hours light; 65% humidity) and are watered twice daily. Either 15 days after application of the herbicide (15 DAA) (for post-emergence), or 20 days after application of the herbicide (20 DAA) (for pre-emergence), the test plants are evaluated visually, and an assessed percentage phytotoxicity score is given for each herbicidal application on each plant species (where 100%=total damage to plant; 0%=no damage to plant).
(§6) Cool climate crop plants: Triticum aestivum (TRZAW, winter wheat), Brassica napus (BRSNN, rape, also called oilseed rape or rapeseed), Beta vulgaris (BEAVA, sugar beet).

[8] = test system: Brassica napus (BRSNN, rape); assay: as above; conditions: 480 h, 125 g/ha, 20 DAA, read-out: percentage phytotoxicity BRSNN
Experimental: as §3, §4, §5, §6

[9] = test system: Beta vulgaris (BEAVA, sugar beet); assay: as above; conditions: 480 h, 125 g/ha, 20 DAA, read-out: percentage phytotoxicity BEAVA
Experimental: as §3, §4, §5, §6

[10] = test system: Brachiaria plantaginea (BRAPL); assay: Test 1B glasshouse assay for herbicidal activity, post-emergence; conditions: Urochloa plantaginea
Outline: as §2

Setaria faberi (SETFA) [11] = assay: Test 1A glasshouse assay for herbicidal activity, pre-emergence; conditions: 312 h, 250 g/ha, evaluated after 13 days, read-out: percentage phytotoxicity SETFA
Outline: as §1

[12] = test system: Amaranthus retroflexus (AMARE); assay: as above; conditions: 312 h, 250 g/ha, evaluated after 13 days, read-out: percentage phytotoxicity AMARE
Outline: as §1

[13] = test system: Echinochloa crus-galli (ECHCG); assay: as above; conditions: 312 h, 250 g/ha, evaluated after 13 days, read-out: percentage phytotoxicity ECHCG
Outline: as §1

[14] = test system: Alopecurus myosuroides (ALOMY); assay: as above; conditions: 312 h, 250 g/ha, evaluated after 13 days, read-out: percentage phytotoxicity ALOMY
Outline: as §1

CC#Cc1cc(C)c(C2=C(OC(C)=O)CC(c3ccccn3)CC2=O)c(C)c1 (centres unmarked) [Compound A-15]
40%: pest or weed control at 250 g/ha [12]
90%: pest or weed control at 30 g/ha ([4]; 30 g/ha) | pest or weed control at 125 g/ha [6]
80%: pest or weed control at 30 g/ha ([5]; 30 g/ha application rate) | plant injury at 125 g/ha [8]
60%: pest or weed control at 250 g/ha ([2]; 250 g/ha)
0%: pest or weed control at 30 g/ha ([2]; 30 g/ha) | plant injury at 125 g/ha [7] | plant injury at 125 g/ha [9]
100%: pest or weed control at 30 g/ha (Setaria faberi (SETFA) [1]; 30 g/ha) | pest or weed control at 250 g/ha (Setaria faberi (SETFA) [1]; 250 g/ha) | pest or weed control at 30 g/ha ([3]; 30 g/ha) | pest or weed control at 250 g/ha ([3]; 250 g/ha) | pest or weed control at 250 g/ha ([4]; 250 g/ha) | pest or weed control at 125 g/ha ([5]; 125 g/ha application rate) | pest or weed control at 30 g/ha ([10]; 30 g/ha application rate) | pest or weed control at 125 g/ha ([10]; 125 g/ha application rate) | pest or weed control at 250 g/ha (Setaria faberi (SETFA) [11]) | pest or weed control at 250 g/ha [13] | pest or weed control at 250 g/ha [14]
